Consider eight compounds from patent US20110172147A1, “NEUROPEPTIDE-2 RECEPTOR (Y-2R) AGONISTS” (priority 2009, published 2011).

Holding throughout (format): cell-based
One test concerns the target T1, Y1R (Homo sapiens, UniProt P25929).
T1 sequence (P25929 1-384): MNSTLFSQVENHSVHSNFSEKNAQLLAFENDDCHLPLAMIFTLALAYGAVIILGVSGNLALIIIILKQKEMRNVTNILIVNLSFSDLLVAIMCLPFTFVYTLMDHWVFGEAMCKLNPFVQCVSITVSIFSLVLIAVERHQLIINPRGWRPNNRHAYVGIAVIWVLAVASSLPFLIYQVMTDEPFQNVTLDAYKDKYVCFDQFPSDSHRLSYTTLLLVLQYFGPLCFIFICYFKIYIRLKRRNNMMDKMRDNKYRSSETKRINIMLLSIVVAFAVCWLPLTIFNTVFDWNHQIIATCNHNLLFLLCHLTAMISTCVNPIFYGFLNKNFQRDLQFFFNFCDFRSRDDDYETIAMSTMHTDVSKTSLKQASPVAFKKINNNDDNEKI
The test is described as follows: CaFlux Assay (FLIPR), Y1R.

In test [1] the target is T2, hNPY2R (Homo sapiens, UniProt P49146).
T2 sequence (P49146 1-381): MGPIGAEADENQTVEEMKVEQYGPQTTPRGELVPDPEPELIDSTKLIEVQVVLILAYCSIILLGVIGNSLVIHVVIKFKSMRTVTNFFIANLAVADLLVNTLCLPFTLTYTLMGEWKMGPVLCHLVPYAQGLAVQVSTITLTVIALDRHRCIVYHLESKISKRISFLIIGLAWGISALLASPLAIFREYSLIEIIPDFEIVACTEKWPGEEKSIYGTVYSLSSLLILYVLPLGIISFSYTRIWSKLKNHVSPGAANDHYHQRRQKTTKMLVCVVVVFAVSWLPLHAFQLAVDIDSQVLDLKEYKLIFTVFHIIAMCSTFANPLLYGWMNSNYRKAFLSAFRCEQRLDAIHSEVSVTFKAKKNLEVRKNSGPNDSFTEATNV
The experiment in a line: CaFlux Assay (FLIPR), Y2R. Also noted: expressed in transfected cells; host or cells: HEK-293 stably transfected with G protein chimera Gαqi9. The gist of the method: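 Calcium flux read by FLIPR in HEK-293 clones co-expressing chimeric Gαqi9 and receptor; compounds in HBSS/20 mM HEPES/0.05% BSA. Baseline-subtracted peak fluorescence, monitored 100 s after addition, is reported relative to the positive control's maximal response.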

In a further test the target is T3, Y5R (Homo sapiens, UniProt Q15761).
T3 sequence (Q15761 1-445): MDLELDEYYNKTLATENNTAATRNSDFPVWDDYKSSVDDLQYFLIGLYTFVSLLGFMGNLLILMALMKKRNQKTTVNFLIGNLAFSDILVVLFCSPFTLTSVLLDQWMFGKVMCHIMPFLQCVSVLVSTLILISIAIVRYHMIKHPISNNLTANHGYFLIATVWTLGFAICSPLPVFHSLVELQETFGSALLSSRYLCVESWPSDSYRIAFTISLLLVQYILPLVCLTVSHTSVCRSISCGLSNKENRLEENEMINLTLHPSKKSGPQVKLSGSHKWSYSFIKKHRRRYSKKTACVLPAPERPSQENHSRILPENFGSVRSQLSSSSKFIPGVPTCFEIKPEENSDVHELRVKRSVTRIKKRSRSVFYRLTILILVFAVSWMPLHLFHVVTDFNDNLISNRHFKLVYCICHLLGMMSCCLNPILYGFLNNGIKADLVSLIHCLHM
The test is described as follows: CaFlux Assay (FLIPR), Y5R.

In another test the target is Y4R (Homo sapiens, UniProt P50391). The test is described as follows: CaFlux Assay (FLIPR), Y4R.
Test [2] has as its target T2, hNPY2R. The experiment in a line: cAMP Agonist Assay, HEK293/hNPY2R. Also noted: expressed in transfected cells; host or cells: HEK293/hNPY2R (G418 selection). The gist of the method: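 Intracellular cAMP quantified by luminescent competitive ELISA after a 30 min room-temperature treatment of overnight-plated HEK293/hNPY2R cells with compound in medium containing 5 μM forskolin, 0.5 mM IBMX and 1.1% DMSO; four replicates per concentration.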

The structures appear in SMILES notation.

Chain of Y4R (P50391 whole entry): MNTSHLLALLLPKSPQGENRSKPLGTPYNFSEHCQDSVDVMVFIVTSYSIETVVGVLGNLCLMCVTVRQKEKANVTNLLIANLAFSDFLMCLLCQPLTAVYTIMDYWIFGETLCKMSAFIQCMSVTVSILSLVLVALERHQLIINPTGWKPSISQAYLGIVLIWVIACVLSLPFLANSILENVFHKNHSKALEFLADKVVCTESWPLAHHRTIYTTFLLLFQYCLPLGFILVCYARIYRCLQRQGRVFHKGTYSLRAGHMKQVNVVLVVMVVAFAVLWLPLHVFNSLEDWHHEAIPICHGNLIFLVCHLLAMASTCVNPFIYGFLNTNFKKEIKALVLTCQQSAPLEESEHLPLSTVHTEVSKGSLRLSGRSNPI

Regarding `CCCCCCCCCCCCCCCC(=O)NCCOCCNC(=O)CCC(=O)NCCCC[C@H](NC(=O)[C@@H](NC(=O)CCOCCOCCOCCOCCOCCOCCOCCOCCOCCOCCOCCOCCOCCOCCOCCOC)[C@@H](C)CC)C(=O)N1CCN(c2ccc3ncn(CC(=O)N[C@@H](CCCNC(=N)N)C(=O)N[C@@H](Cc4c[nH]cn4)C(=O)N[C@@H](Cc4ccc(O)cc4)C(=O)N[C@@H](CC(C)C)C(=O)N[C@@H](CC(N)=O)C(=O)N[C@@H](Cc4c[nH]c5ccccc45)C(=O)N[C@H](C(=O)N[C@H](C(=O)N[C@@H](CCCNC(=N)N)C(=O)N[C@@H](CCC(N)=O)C(=O)N(C)[C@@H](CCCNC(=N)N)C(=O)N[C@@H](Cc4ccc(O)cc4)C(N)=O)[C@@H](C)O)C(C)C)c(=O)c3c2)CC1` [Example 14], the 50% effective concentration (EC50) on Y1R is above 5000 nM; on hNPY2R [1], 0.032 nM; on Y5R it was 370 nM; at Y4R it was above 5000 nM; on hNPY2R [2], 0.08 nM. In addition, the “Y5R FLIPR agonist character (partial agonist mark)” value at Y5R (FLIPR) is “P.A”.

With `CCCCCCCCCCCCCCCC(=O)NCCCCCC(=O)NCCOCCOCCOCCOCCOCCOCCOCCOCCOCCOCCOCCOCCOCCOCCOCCOCCOCCOCCOCCOCCOCCOCCOCCOCCC(=O)N[C@H](C(=O)N[C@@H](CCCCN)C(=O)N1CCN(c2ccc3ncn(CC(=O)N[C@@H](CCCNC(=N)N)C(=O)N[C@@H](Cc4c[nH]cn4)C(=O)N[C@@H](Cc4ccc(O)cc4)C(=O)N[C@@H](CC(C)C)C(=O)N[C@@H](CC(N)=O)C(=O)N[C@@H](Cc4c[nH]c5ccccc45)C(=O)N[C@H](C(=O)N[C@H](C(=O)N[C@@H](CCCNC(=N)N)C(=O)N[C@@H](CCC(N)=O)C(=O)N(C)[C@@H](CCCNC(=N)N)C(=O)N[C@@H](Cc4ccc(O)cc4)C(N)=O)[C@@H](C)O)C(C)C)c(=O)c3c2)CC1)[C@@H](C)CC` [Example 38], the EC50 on Y1R is above 6000 nM; on hNPY2R [1] it was 0.1 nM; on Y5R, 1380 nM; on Y4R, above 6000 nM; on hNPY2R [2] it was 0.07 nM.

As for `CCCCCCCCCCCCCCCCCCCC(=O)N[C@@H](CCC(=O)O)C(=O)N[C@@H](CCC(=O)O)C(=O)N[C@H](C(=O)N[C@@H](CCCCNC(=O)CCOCCOCCOCCOCCOCCOCCOCCOCCOCCOCCOCCOC)C(=O)N1CCN(c2ccc3ncn(CC(=O)N[C@@H](CCCNC(N)=O)C(=O)N[C@@H](Cc4c[nH]cn4)C(=O)N[C@@H](Cc4ccc(O)cc4)C(=O)N[C@@H](CC(C)C)C(=O)N[C@@H](CC(N)=O)C(=O)N[C@@H](Cc4c[nH]c5ccccc45)C(=O)N[C@H](C(=O)N[C@H](C(=O)N[C@@H](CCCNC(=N)N)C(=O)N[C@@H](CCC(N)=O)C(=O)N(C)[C@@H](CCCNC(=N)N)C(=O)N[C@@H](Cc4ccc(O)cc4)C(N)=O)[C@@H](C)O)C(C)C)c(=O)c3c2)CC1)[C@@H](C)CC` [Example 45], the concentration for a half-maximal effect (EC50) on Y1R was above 6000 nM; at hNPY2R [1], 0.158 nM; at Y5R it was above 6000 nM; on Y4R it was above 6000 nM; on hNPY2R [2], 0.3 nM.

As for `CCCCCCCCCCCCCCCCCCCC(=O)N[C@@H](CCC(=O)N[C@@H](CCC(=O)NCCCC[C@H](NC(=O)[C@@H](NC(=O)COCCOCCOC)[C@@H](C)CC)C(=O)N1CCN(c2ccc3ncn(CC(=O)N[C@@H](CCCNC(=N)N)C(=O)N[C@@H](Cc4c[nH]cn4)C(=O)N[C@@H](Cc4ccc(O)cc4)C(=O)N[C@@H](CC(C)C)C(=O)N[C@@H](CC(N)=O)C(=O)N[C@@H](Cc4c[nH]c5ccccc45)C(=O)N[C@H](C(=O)N[C@H](C(=O)N[C@@H](CCCNC(=N)N)C(=O)N[C@@H](CCC(N)=O)C(=O)N(C)[C@@H](CCCNC(=N)N)C(=O)N[C@@H](Cc4ccc(O)cc4)C(N)=O)[C@@H](C)O)C(C)C)c(=O)c3c2)CC1)C(=O)O)C(=O)O` [Example 22], the concentration for a half-maximal effect (EC50) on Y1R is above 6000 nM; at hNPY2R [1], 0.298 nM; on Y5R, 1510 nM; at Y4R, above 6000 nM; at hNPY2R [2], 0.065 nM.

With `CCCCCCCCCCCCCCCC(=O)NCCCCCC(=O)NCCCCCC(=O)N[C@H](C(=O)N[C@@H](CCCCNC(=O)CCOCCOCCOCCOCCOCCOCCOCCOCCOCCOCCOCCOC)C(=O)N1CCN(c2ccc3ncn(CC(=O)N[C@@H](CCCNC(=N)N)C(=O)N[C@@H](Cc4c[nH]cn4)C(=O)N[C@@H](Cc4ccc(O)cc4)C(=O)N[C@@H](CC(C)C)C(=O)N[C@@H](CC(N)=O)C(=O)N[C@@H](Cc4c[nH]c5ccccc45)C(=O)N[C@H](C(=O)N[C@H](C(=O)N[C@@H](CCCNC(=N)N)C(=O)N[C@@H](CCC(N)=O)C(=O)N(C)[C@@H](CCCNC(=N)N)C(=O)N[C@@H](Cc4ccc(O)cc4)C(N)=O)[C@@H](C)O)C(C)C)c(=O)c3c2)CC1)[C@@H](C)CC` [Example 40], the EC50 was above 6000 nM on Y1R; 0.058 nM at hNPY2R [1]; 820 nM at Y5R; above 6000 nM at Y4R; 0.11 nM at hNPY2R [2].

On to `CCCCCCCCCCCCCCCCCCCC(=O)NCCCCCC(=O)N[C@H](C(=O)N[C@@H](CCCCNC(=O)CCOCCOCCOCCOCCOCCOCCOCCOCCOCCOCCOCCOCCOCCOCCOCCOCCOCCOCCOCCOCCOCCOCCOCCOC)C(=O)N1CCN(c2ccc3ncn(CC(=O)N[C@@H](CCCNC(N)=O)C(=O)N[C@@H](Cc4c[nH]cn4)C(=O)N[C@@H](Cc4ccc(O)cc4)C(=O)N[C@@H](CC(C)C)C(=O)N[C@@H](CC(N)=O)C(=O)N[C@@H](Cc4c[nH]c5ccccc45)C(=O)N[C@H](C(=O)N[C@H](C(=O)N[C@@H](CCCNC(=N)N)C(=O)N[C@@H](CCC(N)=O)C(=O)N(C)[C@@H](CCCNC(=N)N)C(=O)N[C@@H](Cc4ccc(O)cc4)C(N)=O)[C@@H](C)O)C(C)C)c(=O)c3c2)CC1)[C@@H](C)CC` [Example 33], for which the EC50 at Y1R is above 6000 nM; at hNPY2R [1], 0.127 nM; at Y5R, 4290 nM; on Y4R, above 6000 nM; at hNPY2R [2] it was 0.13 nM.

Turning to `CCCCCCCCCCCCCCCCCCCC(=O)N[C@@H](CCC(=O)N[C@@H](CCC(=O)N[C@H](C(=O)N[C@@H](CCCCNC(=O)CCOCCOCCOCCOCCOCCOCCOCCOCCOCCOCCOCCOC)C(=O)N1CCN(c2ccc3ncn(CC(=O)N[C@@H](CCCNC(=N)N)C(=O)N[C@@H](Cc4c[nH]cn4)C(=O)N[C@@H](Cc4ccc(O)cc4)C(=O)N[C@@H](CC(C)C)C(=O)N[C@@H](CC(N)=O)C(=O)N[C@@H](Cc4c[nH]c5ccccc45)C(=O)N[C@H](C(=O)N[C@H](C(=O)N[C@@H](CCCNC(=N)N)C(=O)N[C@@H](CCC(N)=O)C(=O)N(C)[C@@H](CCCNC(=N)N)C(=O)N[C@@H](Cc4ccc(O)cc4)C(N)=O)[C@@H](C)O)C(C)C)c(=O)c3c2)CC1)[C@@H](C)CC)C(=O)O)C(=O)O` [Example 58], the 50% effective concentration (EC50) is above 9000 nM at Y1R; 0.114 nM on hNPY2R [1]; 4180 nM at Y5R; above 9000 nM on Y4R; 0.21 nM on hNPY2R [2].

Consider `CCCCCCCCCCCC(=O)NCCCCCC(=O)N[C@H](C(=O)N[C@@H](CCCCNC(=O)CCOCCOCCOCCOCCOCCOCCOCCOCCOCCOCCOCCOCCOCCOCCOCCOCCOCCOCCOCCOCCOCCOCCOCCOC)C(=O)N1CCN(c2ccc3ncn(CC(=O)N[C@@H](CCCNC(N)=O)C(=O)N[C@@H](Cc4c[nH]cn4)C(=O)N[C@@H](Cc4ccc(O)cc4)C(=O)N[C@@H](CC(C)C)C(=O)N[C@@H](CC(N)=O)C(=O)N[C@@H](Cc4c[nH]c5ccccc45)C(=O)N[C@H](C(=O)N[C@H](C(=O)N[C@@H](CCCNC(=N)N)C(=O)N[C@@H](CCC(N)=O)C(=O)N(C)[C@@H](CCCNC(=N)N)C(=O)N[C@@H](Cc4ccc(O)cc4)C(N)=O)[C@@H](C)O)C(C)C)c(=O)c3c2)CC1)[C@@H](C)CC` [Example 36], for which the concentration for a half-maximal effect (EC50) on Y1R is above 6000 nM; at hNPY2R [1], 0.388 nM; on Y5R, above 6000 nM; on Y4R, above 6000 nM; on hNPY2R [2], 12.7 nM.

Broadly, the EC50 is the midpoint of the concentration-response curve. Lower therefore signals higher potency in that assay.
